Laboratory results reported in ChEMBL document CHEMBL3621149, “Cytotoxic labdane-type diterpenes from Hedychium longipetalum inhibiting production of nitric oxide” (Bioorg Med Chem Lett, 2015).
≈ marks a conversion by molar mass, not a printed value. Peptide text beside a SMILES is read from it. * marks the point of attachment. Cbz = O=C(OCc1ccccc1)*

How the values were obtained:
Format in all cases: functional, cell-based
[1] = tested on: HeLa; test: Cytotoxicity against human HeLa cells after 48 hrs by SRB assay
[2] = Cytotoxicity against human SGC7901 cells after 48 hrs by SRB assay; settings: SGC-7901, 48 h
[3] = tested on: RAW264.7; test: Inhibition of LPS and IFN-gamma-stimulated nitric oxide production in mouse RAW264.7 cells after 18 hrs by Griess method; settings: RAW264.7, 18 h

## C=C1[C@@H](O)C[C@H]2C(C)(C)CCC[C@]2(C)[C@H]1/C=C/C1=CCOC1=O
[1]
  IC50: 14.8 µg/mL (≈ 46.9 µM)
[2]
  IC50: 14.5 µg/mL (≈ 45.9 µM)
[3]
  IC50: 6.52 µg/mL (≈ 20.6 µM)

## C=C1[C@@H](O)[C@@H](O)[C@H]2C(C)(C)CCC[C@]2(C)[C@H]1/C=C/C1=CCOC1=O
[1]
  IC50: > 25 µg/mL
[2]
  IC50: > 25 µg/mL
[3]
  IC50: 5.58 µg/mL (≈ 16.8 µM)

## C=C1C[C@@H](O)[C@H]2C(C)(C)CCC[C@]2(C)[C@H]1/C=C/c1ccoc1 [YUNNACORONARIN A]
[1]
  IC50: 6.58 µg/mL (≈ 21.9 µM)
[2]
  IC50: 6.21 µg/mL (≈ 20.7 µM)
[3]
  IC50: 0.56 µg/mL (≈ 1.86 µM)

## CC(=O)O[C@H]1C(=O)[C@@]2(C)[C@H]([C@H](OC(=O)c3ccccc3)[C@]3(O)C[C@H](OC(=O)[C@H](O)[C@@H](NC(=O)c4ccccc4)c4ccccc4)C(C)=C1C3(C)C)[C@]1(OC(C)=O)CO[C@@H]1C[C@@H]2O [PACLITAXEL]
[1]
  IC50: 0.1 µg/mL (≈ 0.117 µM)
[2]
  IC50: 0.2 µg/mL (≈ 0.234 µM)

## C=C1[C@@H](O)C[C@H]2C(C)(C)CCC[C@]2(C)[C@H]1/C=C/C1=CC(=O)OC1O (stereo partly specified) [HEDYFORRESTIN C]
[1]
  IC50: 9.21 µg/mL (≈ 27.7 µM)
[2]
  IC50: 7.29 µg/mL (≈ 21.9 µM)
[3]
  IC50: 2.77 µg/mL (≈ 8.33 µM)

## C=C1C[C@@H](O)[C@H]2C(C)(C)CCC[C@]2(C)[C@H]1C/C=C1/CC(OC)OC1=O (stereo partly specified)
[1]
  IC50: 11.3 µg/mL (≈ 32.5 µM)
[2]
  IC50: 8.74 µg/mL (≈ 25.1 µM)
[3]
  IC50: 6.1 µg/mL (≈ 17.5 µM)

## CC1(C)CCC[C@]2(C)[C@@H]3C(=CC(=O)[C@@H]12)CO[C@H]3C(=O)c1ccoc1
[1]
  IC50: > 25 µg/mL
[2]
  IC50: > 25 µg/mL
[3]
  IC50: 7.5 µg/mL (≈ 22.8 µM)

## CC(C)C[C@@H](C=O)NC(=O)[C@H](CC(C)C)NC(=O)[C@H](CC(C)C)NC(=O)OCc1ccccc1 [MG-132] (Cbz-Leu-Leu-Leu-aldehyde)
[3]
  IC50: 0.08 µg/mL (≈ 0.168 µM)
